This note sets out measurements from patent US5696231A, “N-substituted glycine derivatives as enzyme inhibitors” (Corvas International, Inc., priority 1994, dated 1997).

Each structure is given as a SMILES string.

For experiment [1], the system named is pooled normal human plasma. The experiment is described as follows: Prothrombin time (PT) assay in citrated human plasma. As to conditions: control clotting time 13 seconds, mean of two independent determinations. The format is biochemical. The source says:
(§1) FIG. 2 depicts the anticoagulant effect of (D)-camphorsulfonyl aspartyl sarcosine arginine aldehyde measured in citrated human plasma using the activated partial thromboplastin time (APTT) assay, closed circles (1), and prothrombin time (PT) assay, open triangles (D). The control clotting times (0 inhibitor) for the APTT and PT assays in human plasma were 29 seconds and 13 seconds, respectively. The concentration of (D)-camphorsulfonyl aspartyl sarcosine arginine aldehyde which caused a doubling of the control clotting times in the APTT and PT assays were 54 micromolar and 298 micromolar, respectively. The data is the mean of two independent determinations.
(§2) The ex vivo anticoagulant effect of a compound of the present invention, (D)-camphorsulfonyl aspartyl sarcosine arginine aldehyde (Example 56), was determined by measuring the prolongation of the activated partial thromboplastin time (APTT) and prothrombin time (PT) over a broad concentration range of the added inhibitor, using pooled normal human plasma.
(§3) Fresh frozen citrated pooled normal human plasma was obtained from George King Biomedical, Overland Park, Kansa. […]

In experiment [2] the test system is pooled normal human plasma. Kind of experiment: Activated partial thromboplastin time (APTT) assay in citrated human plasma. In kind it is biochemical.
From the text: as §1, §2, §3

Take `CN(CC(=O)N[C@H](C=O)CCCN=C(N)N)C(=O)[C@H](CC(=O)O)NS(=O)(=O)C[C@]12CC[C@H](CC1=O)C2(C)C` [(D)-camphorsulfonyl aspartyl sarcosine arginine aldehyde]: in experiment [1], the “concentration which caused a doubling of the control clotting time in the PT assay” value was determined as 298 µM. For the same molecule, in experiment [2] (citrated human plasma, control clotting time 29 seconds, mean of two independent determinations), the “concentration which caused a doubling of the control clotting time in the APTT assay” value is 54 µM. In experiment [2] (human plasma, broad concentration range of added inhibitor (FIG. 2)), the “prolongation of the APTT” value is “prolonged the APTT in a dose dependent manner”.
